Assay results reported in patent US11285226B2, “Aryl ethene derivative and pharmaceutical composition containing same as active ingredient” (priority 2016, dated 2022).

Columns and labels:
CYP3A4 = CYP3A4 (Homo sapiens (Human), UniProt P08684); assay: Cytochrome P450 activity inhibition, CYP3A4; format: in vitro ADME; settings: 10 μM, human liver microsomes
Method: Thereafter, in order to complete the reaction, an acetonitrile solution containing an internal standard material (Terfenadine) was added thereto, centrifugation (14,000 rpm, 4° C.) was performed for 5 minutes, and a supernatant was injected into a LC-MS/MS system to analyze the metabolites of the substrate drug, thereby evaluating drug metabolism enzyme inhibition by the arylethene derivative of the present invention.

CYP1A2 = CYP1A2 (Homo sapiens (Human), UniProt P05177); assay: Cytochrome P450 activity inhibition, CYP1A2; format: in vitro ADME; settings: 10 μM, human liver microsomes
Source text: (§1) 1) Cytochrome P450 (CYP450) Activity Inhibition Evaluation

CYP2C19 = CYP2C19 (Homo sapiens (Human), UniProt P33261); assay: Cytochrome P450 activity inhibition, CYP2C19; format: in vitro ADME; settings: 10 μM, human liver microsomes
Source text: as §1

CYP2C9 = CYP2C9 (Homo sapiens (Human), UniProt P11712); assay: Cytochrome P450 activity inhibition, CYP2C9; format: in vitro ADME; settings: 10 μM, human liver microsomes
Source text: as §1

CYP2D6 = CYP2D6 (Homo sapiens (Human), UniProt P10635); assay: Cytochrome P450 activity inhibition, CYP2D6; format: in vitro ADME; settings: 10 μM, human liver microsomes
Source text: as §1

ERRγ = format: cell-based; settings: for Functional Assay, Cpds/Ref 5182: activity relative to reference compound GSK5182; for Functional Assay at 10 μM (% of control), Cpds: AD293, 24 hours
Method: AD293 was cultured in a 24-well plate for 24 hours, using a DMEM High glucose culture medium (Hyclone, USA) to which 0.5% FBS was added at a concentration of 9×10^4/well. The culture medium was replaced with a DMEM High glucose culture medium to which 10% FBS was added, treatment was performed with a mixture of a TransIT-LT1 transfection reagent (Minis, USA) and pCMX-Gal4-ERRγ, pFR-luciferase reporter plasmid, pCMV-β-gal, and culturing was performed for 24 hours. Thereafter, a luciferase activity assay and a β-gal assay were performed, respectively, with a lysate obtained after treatment with the arylethene derivative of the present invention for 24 hours. All results were derived from three or more independent repetitive experiments.

CYP1A2, sequence (P05177 whole entry): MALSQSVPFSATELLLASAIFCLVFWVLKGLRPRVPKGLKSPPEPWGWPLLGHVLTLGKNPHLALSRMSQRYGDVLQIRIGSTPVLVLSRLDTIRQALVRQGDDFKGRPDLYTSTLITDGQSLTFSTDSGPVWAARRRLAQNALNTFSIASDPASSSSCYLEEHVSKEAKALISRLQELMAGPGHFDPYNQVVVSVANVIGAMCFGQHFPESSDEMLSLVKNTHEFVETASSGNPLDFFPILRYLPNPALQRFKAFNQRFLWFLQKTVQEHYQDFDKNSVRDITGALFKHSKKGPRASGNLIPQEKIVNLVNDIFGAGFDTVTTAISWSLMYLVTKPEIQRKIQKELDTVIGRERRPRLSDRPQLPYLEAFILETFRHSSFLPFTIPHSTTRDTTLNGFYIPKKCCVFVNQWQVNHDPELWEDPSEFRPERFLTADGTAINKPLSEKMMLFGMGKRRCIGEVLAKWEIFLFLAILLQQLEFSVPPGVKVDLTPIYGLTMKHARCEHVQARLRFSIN
CYP3A4, sequence (P08684 whole entry): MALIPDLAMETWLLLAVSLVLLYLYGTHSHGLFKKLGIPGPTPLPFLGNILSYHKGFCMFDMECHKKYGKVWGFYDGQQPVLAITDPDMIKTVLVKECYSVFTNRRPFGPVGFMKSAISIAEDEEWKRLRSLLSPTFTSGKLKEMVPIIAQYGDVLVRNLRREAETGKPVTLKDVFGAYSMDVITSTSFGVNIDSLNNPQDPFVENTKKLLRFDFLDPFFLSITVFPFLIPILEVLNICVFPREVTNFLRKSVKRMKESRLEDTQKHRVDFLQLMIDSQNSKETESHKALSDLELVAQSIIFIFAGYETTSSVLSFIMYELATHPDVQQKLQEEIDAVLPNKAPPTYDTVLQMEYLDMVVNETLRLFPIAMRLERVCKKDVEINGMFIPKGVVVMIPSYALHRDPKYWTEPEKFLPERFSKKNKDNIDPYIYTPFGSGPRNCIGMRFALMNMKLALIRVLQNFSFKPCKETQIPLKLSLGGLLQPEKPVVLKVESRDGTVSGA
CYP2C9, sequence (P11712 whole entry): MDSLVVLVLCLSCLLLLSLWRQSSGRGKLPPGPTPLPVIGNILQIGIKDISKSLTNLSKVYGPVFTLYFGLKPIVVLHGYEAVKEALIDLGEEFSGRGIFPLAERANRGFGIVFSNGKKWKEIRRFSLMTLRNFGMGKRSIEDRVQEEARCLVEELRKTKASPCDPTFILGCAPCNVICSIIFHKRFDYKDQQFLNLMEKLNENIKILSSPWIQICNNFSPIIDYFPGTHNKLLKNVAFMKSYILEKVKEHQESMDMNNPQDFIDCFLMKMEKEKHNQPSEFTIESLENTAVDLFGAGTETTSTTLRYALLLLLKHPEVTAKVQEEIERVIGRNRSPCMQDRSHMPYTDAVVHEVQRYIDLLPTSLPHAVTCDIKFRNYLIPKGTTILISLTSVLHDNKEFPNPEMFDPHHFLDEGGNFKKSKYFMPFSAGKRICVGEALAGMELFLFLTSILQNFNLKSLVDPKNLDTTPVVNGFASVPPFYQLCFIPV
CYP2C19, sequence (P33261 whole entry): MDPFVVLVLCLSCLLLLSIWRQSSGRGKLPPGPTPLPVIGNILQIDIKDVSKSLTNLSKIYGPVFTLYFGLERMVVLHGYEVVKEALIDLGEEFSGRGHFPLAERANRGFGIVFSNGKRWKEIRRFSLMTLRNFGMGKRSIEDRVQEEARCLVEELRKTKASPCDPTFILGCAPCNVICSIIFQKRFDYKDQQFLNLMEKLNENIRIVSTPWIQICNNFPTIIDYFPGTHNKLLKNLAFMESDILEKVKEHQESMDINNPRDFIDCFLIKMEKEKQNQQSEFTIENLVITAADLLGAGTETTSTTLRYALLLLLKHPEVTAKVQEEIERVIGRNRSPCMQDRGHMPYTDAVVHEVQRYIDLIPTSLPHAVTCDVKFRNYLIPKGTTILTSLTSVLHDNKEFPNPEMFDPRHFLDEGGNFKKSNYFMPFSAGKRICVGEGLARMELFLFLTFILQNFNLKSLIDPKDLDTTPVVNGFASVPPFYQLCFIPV
CYP2D6, sequence (P10635 whole entry): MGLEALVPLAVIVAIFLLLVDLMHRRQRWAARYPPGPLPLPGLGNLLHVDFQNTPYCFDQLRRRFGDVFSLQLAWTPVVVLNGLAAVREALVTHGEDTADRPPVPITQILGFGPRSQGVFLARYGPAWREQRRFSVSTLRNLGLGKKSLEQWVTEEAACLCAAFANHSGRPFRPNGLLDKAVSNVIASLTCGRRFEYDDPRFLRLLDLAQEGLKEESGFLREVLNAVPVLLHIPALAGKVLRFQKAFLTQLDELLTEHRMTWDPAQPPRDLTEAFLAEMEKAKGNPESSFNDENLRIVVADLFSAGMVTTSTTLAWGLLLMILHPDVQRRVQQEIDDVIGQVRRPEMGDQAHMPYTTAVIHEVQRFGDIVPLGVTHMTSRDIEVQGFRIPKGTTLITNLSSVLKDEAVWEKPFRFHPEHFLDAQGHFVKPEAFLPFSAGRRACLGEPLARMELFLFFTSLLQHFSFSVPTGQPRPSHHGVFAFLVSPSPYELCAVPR

Row | SMILES | CYP inhibition (% of control) 3A4 (CYP3A4) | CYP inhibition (% of control) 1A2 (CYP1A2) | CYP inhibition (% of control) 2C19 (CYP2C19) | CYP inhibition (% of control) 2C9 (CYP2C9) | CYP inhibition (% of control) 2D6 (CYP2D6) | Functional Assay, Cpds/Ref 5182 (ERRγ) | Functional Assay at 10 μM (% of control), Cpds (ERRγ)
1 | OCCC/C(=C(\c1ccc(O)cc1)c1ccc(OCCN2CCC3(CCNC3)C2)cc1)c1ccccc1 (stereo not shown) [Compound 39, (Z)-4-(1-(4-(2-(2,7-diazaspiro[4.4]nonan-2-yl)ethoxy)phenyl)-5-hydroxy-2-phenylpent-1-en-1-yl)phenol] | 59 % of control | 82.5 % of control | 73.9 % of control | 74.4 % of control | 67.8 % of control |  | 
2 | OCCC/C(=C(\c1ccc(O)cc1)c1ccc(C2=CCN(C3CC3)CC2)cc1)c1ccccc1 [Compound 22j] | 85 % of control |  |  | 88 % of control |  |  | 
3 | CCN1CCN(c2ccc(/C(=C(/CCCO)c3ccccc3)c3ccc(O)cc3)cc2)CC1 [Compound 18i] |  |  |  |  |  | 0.97 | 
4 | CN1CCCC1CCOc1ccc(/C(=C(/CCCO)c2ccccc2)c2ccc(O)cc2)cc1 (stereo not shown) [Compound 6g] | 83.7 % of control | 97.8 % of control | 81.8 % of control | 75.4 % of control | 81.7 % of control | 1.60 | 
5 | CN1CCN(c2ccc(/C(=C(/CCCO)c3ccccc3)c3ccc([N+](=O)[O-])cc3)cc2)CC1 [Compound 18c] |  |  | 80 % of control |  |  | 0.42 | 
6 | CCN1CCC(c2ccc(C(=C(CCCO)c3ccccc3)c3cccc(O)c3)cc2)CC1 [Compound 22ae] |  |  | >100 % of control | >100 % of control |  |  | 
7 | CC(C)N1CCN(c2ccc(/C(=C(/CCCO)c3ccccc3)c3ccc(OS(C)(=O)=O)cc3)cc2)CC1 [Compound 28a, (E)-4-(5-hydroxy-1-(4-(4-isopropylpiperazin-1-yl)phenyl)-2-phenylpent-1-en-1-yl)phenyl methanesulfonate] |  |  |  |  |  | 1.20 | 
8 | OCCC/C(=C(\c1ccc(Br)cc1)c1ccc(N2CCNCC2)cc1)c1ccccc1 [Compound 20a, (E)-5-(4-bromophenyl)-4-phenyl-5-(4-(piperazin-1-yl)phenyl)pent-4-en-1-ol] | 55 % of control | 85 % of control | 61.9 % of control | 76 % of control | 70.7 % of control |  | 
9 | CN1CCCC1CCOc1ccc(/C(=C(/CCCO)c2ccccc2)c2ccc(Br)cc2)cc1 (stereo not shown) [Compound 13d] | 90.2 % of control | >100 % of control | 89.4 % of control | 97 % of control | >100 % of control |  | 
10 | CC(C)N1CCC(c2ccc(/C(=C(/CCCO)c3ccccc3)c3ccc(N)cc3)cc2)CC1 [Compound 26c] |  |  |  |  |  | 4.80 | 
11 | OCCC/C(=C(\c1ccc(O)cc1)c1ccc(OCCN2CCC[C@@H]2CO)cc1)c1ccccc1 [Compound 38c] |  |  |  |  |  | 0.99 | 
12 | CN1CCC[C@H]1CCOc1ccc(/C(=C(/CCCO)c2ccccc2)c2ccc(O)cc2)cc1 [Compound 6j] | 74.6 % of control | 98.7 % of control | 89.1 % of control | 85.6 % of control | 85.2 % of control | 0.77 | 
13 | CN1CCC[C@@H]1CCOc1ccc(/C(=C(/CCCO)c2ccccc2)c2ccc(O)cc2)cc1 [Compound 6k] |  |  |  |  |  | 0.79 | 
14 | OCCC/C(=C(\c1ccc(O)cc1)c1ccc(N2CCN(C3CCC3)CC2)cc1)c1ccccc1 [Compound 22q] | 81 % of control |  |  |  |  |  | 
15 | CN1CCC[C@@H]1COc1ccc(/C(=C(/CCCO)c2ccccc2)c2ccc(O)cc2)cc1 [Compound 6i] | 79.4 % of control | 98.1 % of control | 82.6 % of control | 86.7 % of control | 93.6 % of control |  | 
16 | OCCC/C(=C(\c1ccc(O)cc1)c1ccc(OCCN2CCCC2)cc1)c1ccccc1 [Compound 6e] | 68.1 % of control | 79.6 % of control | 64.1 % of control | 51.6 % of control | 80.6 % of control |  | 

Row | SMILES | CYP inhibition (% of control) 3A4 (CYP3A4) | CYP inhibition (% of control) 1A2 (CYP1A2) | CYP inhibition (% of control) 2C19 (CYP2C19) | CYP inhibition (% of control) 2C9 (CYP2C9) | CYP inhibition (% of control) 2D6 (CYP2D6) | Functional Assay, Cpds/Ref 5182 (ERRγ) | Functional Assay at 10 μM (% of control), Cpds (ERRγ)
17 | OCCC/C(=C(\c1ccc(O)cc1)c1ccc(C2CN(C3CC3)C2)cc1)c1ccccc1 [Compound 22d] |  | >100 % of control | >100 % of control | >100 % of control |  | 0.62 | 
18 | CC(C)(C)OC(=O)N1CCN(c2ccc(/C(=C(/CCCO)c3ccccc3)c3ccc(Br)cc3)cc2)CC1 [Compound 18n] |  |  |  |  |  | 0.82 | 
19 | CC(C)N1CCC(c2ccc(/C(=C(/CCCO)c3ccccc3)c3cccc(O)c3)cc2)CC1 [Compound 22h] |  | >100 % of control | >100 % of control |  |  |  | 
20 | CN1CCN(c2ccc(/C(=C(/CCCOC(=O)C(C)(C)C)c3ccccc3)c3ccc(O)cc3)cc2)CC1 [Compound 28f] |  |  |  |  |  | 0.98 | 4 % of control
21 | CN1CCN(c2ccc(/C(=C(/CCCOC(=O)C(C)(C)C)c3ccccc3)c3ccc(OC(=O)C(C)(C)C)cc3)cc2)CC1 [Compound 28g] |  |  |  |  |  |  | 5.1 % of control
22 | OCCC/C(=C(\c1ccc(O)cc1)c1ccc(N2CCNCC2)cc1)c1ccccc1 [Compound 20c] |  |  |  |  |  | 0.93 | 
23 | CC(C)N1CCN(c2ccc(/C(=C(/CCCO)c3ccccc3)c3ccc([N+](=O)[O-])cc3)cc2)CC1 [Compound 18g] |  |  |  |  |  | 0.84 | 
24 | CN1CCN(c2ccc(/C(=C(/CCCO)c3ccccc3)c3ccc(O)cc3)cc2)CC1 [Compound 18d] | 64 % of control | 88 % of control |  |  |  | 0.97 | 
25 | OCCC/C(=C(\c1ccc(O)cc1)c1ccc(OCCN2CCOCC2)cc1)c1ccccc1 [Compound 6c] | 81.3 % of control | 91.9 % of control | 81.6 % of control | 77.9 % of control | 96.4 % of control |  | 
26 | CC(C)(C)OC(=O)N1CC(c2ccc(/C(=C(/CCCO)c3ccccc3)c3ccc(O)cc3)cc2)C1 [Compound 18t, tert-butyl (E)-3-(4-(5-hydroxy-1-(4-hydroxyphenyl)-2-phenylpent-1-en-1-yl)phenyl)azetidine-1-carboxylate] | 106 % of control | 100 % of control | 93 % of control | 83 % of control | 98 % of control |  | 
27 | Cc1ccc(/C(=C(\CCCO)c2ccccc2)c2ccc(N3CCN(C)CC3)cc2)cc1 [Compound 18f] |  | >100 % of control |  |  |  | 0.82 | 
28 | C[Si](C)(CN1CCCC1)c1ccc(/C(=C(/CCCO)c2ccccc2)c2ccc(O)cc2)cc1 [Compound 42c] |  |  |  |  |  | 0.89 | 2.6 % of control
29 | OCCC/C(=C(/c1ccc(C2=CCN(C3CC3)CC2)cc1)c1cccc(O)c1)c1ccccc1 [Compound 22l] |  |  | 97 % of control |  | 99 % of control |  | 
30 | Cc1ccc(/C(=C(\CCCO)c2ccccc2)c2ccc(C3CN(C(C)C)C3)cc2)cc1 [Compound 22e] |  |  |  |  |  | 0.61 | 
31 | CN1CCC(c2ccc(/C(=C(/CCCO)c3ccccc3)c3cccc(O)c3)cc2)CC1 [Compound 22ac] | 85 % of control | >100 % of control | >100 % of control | >100 % of control |  |  | 
